# Test results as given in patent publication US7745459B2, “Quinolizinone compound and use thereof as HIV integrase inhibitor” (Japan Tobacco Inc., priority 2004, dated 2010).
# Molecular target: T1, HIV integrase (Human immunodeficiency virus type 1 group M subtype B, UniProt P12497, F1332H)
# T1 construct: HIV integrase full length gene; made in house; host or cells: Escherichia coli BL21 (DE3)
# Assay: Determination of enzyme (HIV integrase) inhibitory activity
# Format: biochemical
# Details: recombinant integrase protein (phenylalanine at codon 185 substituted by histidine); donor/target DNA, absorbance at 450 nm; read-out: Anti-integrase activity (IC50 value)
# Description: The following explains evaluation methods of the HIV integrase inhibitory activity of the compound of the present invention.
# HIV integrase full length gene (J. Virol., 67, 425-437 (1993)) in which phenylalanine at codon 185 was substituted by histidine, was inserted between the restriction enzyme NdeI and XhoI sites of plasmid pET21a(+) (Novagen), whereby an integrase expression vector pET21a-INH was constructed.
# Escherichia coli recombinant BL21 (DE3) transformed with plasmid pET21a-INH obtained in (i) was shake cultured at 37° C. in a liquid medium containing ampicillin. When the culture reached the logarithmic growth phase, isopropyl-β-D-thiogalactopyranoside was added to promote expression of integrase gene. The culture was continued for 3 hr to promote accumulation of the integrase protein. The recombinant E. coli was collected in pellets by centrifugal separation and preserved at −80° C.
# The E. coli was suspended in Lysis buffer (20 mM HEPES (pH 7.5), 5 mM DTT, 10 mM CHAPS, 10% glycerol) containing 1 M sodium chloride and subjected to repeat pressurization and depressurization for rupture, and centrifugal separation at 4° C., 40,000×g, 60 min to recover a water-soluble fraction (supernatant). This was diluted 10-fold with Lysis buffer free of sodium chloride, mixed with SP-Sepharose (Pharmacia Corporation) and stirred at 4° C. for 60 min to allow adsorption of integrase protein to the resin. The resin was washed with Lysis buffer containing 100 mM sodium chloride and the integrase protein was eluted with Lysis buffer containing 1 M sodium chloride.
# The eluted integrase protein solution was subjected to a Superdex 75 (Pharmacia Corporation) column for gel filtration. The protein was eluted with Lysis buffer containing 1 M sodium chloride.
# The obtained fractions of the integrase protein were collected and preserved at −80° C.
# The following DNA synthesized by Greiner was dissolved in TE buffer (10 mM Tris-hydrochloric acid (pH 8.0), 1 mM EDTA) and mixed with donor DNA, target DNA, and each complementary strand (+ and − strands) to 1 μM. The mixture was heated at 95° C. for 5 min, 80° C. for 10 min, 70° C. for 10 min, 60° C. for 10 min, 50° C. for 10 min and 40° C. for 10 min and kept at 25° C. to give a double stranded DNA, which was used for the test.
# The donor DNA was diluted with TE buffer to 10 nM, of which 50 μl was added to each well of streptavidin-coated microtiter plate (Roche) and allowed to adsorb at 37° C. for 60 min. The plate was washed with phosphate buffer (Dulbecco's PBS, Sanko Junyaku Co., Ltd.) containing 0.1% Tween 20 and phosphate buffer. Then, a reaction mixture (70 μl) having the following composition, a test substance (10 μl) diluted with the reaction mixture and 100 μg/ml integrase protein (10 μl) were added to each well and reacted at 37° C. for 60 min. Composition of the reaction mixture: 30 mM MOPS (3-morpholinopropanesulfonic acid), 5 mM magnesium chloride, 3 mM DTT (dithiothreitol), 0.1 mg/ml BSA (bovine serum albumin), 5% glycerol, 10% DMSO (dimethyl sulfoxide), 0.01% Tween 20.
# Then, 50 nM target DNA (10 μl) was added, and the mixture was reacted at 37° C. for 10 min and washed with phosphate buffer containing 0.1% Tween 20 to stop the reaction.
# Then, 100 mU/ml peroxidase labeled anti-digoxigenin antibody solution (Roche, 100 μl) was added, and the mixture was reacted at 37° C. for 60 min, followed by washing with phosphate buffer containing 0.1% Tween 20.
# A peroxidase color solution (Bio Rad, 100 μl) was added and allowed to react at room temperature for 4 min. The color reaction was stopped by adding 1N sulfuric acid (100 μl). The absorbance at 450 nm was measured. […]
compound,measurement,value
"CN(Cc1cc(C(=O)O)c(=O)n2cc(Cc3cccc(Cl)c3F)ccc12)C(=O)OC(C)(C)C [Example 41, 1-[(N-(tert-butoxycarbonyl)-N-methylamino)methyl]-7-(3-chloro-2-fluorobenzyl)-4-oxo-4H-quinolizine-3-carboxylic acid]",IC50,0.01 to 0.1 µM
"CCC(=O)NCc1cc(C(=O)O)c(=O)n2cc(Cc3cccc(Cl)c3F)ccc12 [Example 42, 7-(3-chloro-2-fluorobenzyl)-4-oxo-1-(propionylaminomethyl)-4H-quinolizine-3-carboxylic acid]",IC50,0.01 to 0.1 µM
"CCCC(=O)NCc1cc(C(=O)O)c(=O)n2cc(Cc3cccc(Cl)c3F)ccc12 [Example 43, 1-(butyrylaminomethyl)-7-(3-chloro-2-fluorobenzyl)-4-oxo-4H-quinolizine-3-carboxylic acid]",IC50,0.01 to 0.1 µM
"CC(C)C(=O)NCc1cc(C(=O)O)c(=O)n2cc(Cc3cccc(Cl)c3F)ccc12 [Example 44, 7-(3-chloro-2-fluorobenzyl)-1-(isobutyrylaminomethyl)-4-oxo-4H-quinolizine-3-carboxylic acid]",IC50,0.01 to 0.1 µM
"O=C(NCc1cc(C(=O)O)c(=O)n2cc(Cc3cccc(Cl)c3F)ccc12)c1ccccc1 [Example 45, 1-(benzoylaminomethyl)-7-(3-chloro-2-fluorobenzyl)-4-oxo-4H-quinolizine-3-carboxylic acid]",IC50,0.01 to 0.1 µM
"CCOC(=O)NCc1cc(C(=O)O)c(=O)n2cc(Cc3cccc(Cl)c3F)ccc12 [Example 46, 7-(3-chloro-2-fluorobenzyl)-1-(ethoxycarbonylaminomethyl)-4-oxo-4H-quinolizine-3-carboxylic acid]",IC50,0.01 to 0.1 µM
"O=C(O)c1cc(CNC(=O)N2CCOCC2)c2ccc(Cc3cccc(Cl)c3F)cn2c1=O [Example 47, 7-(3-chloro-2-fluorobenzyl)-1-([(morpholinocarbonyl)amino]methyl)-4-oxo-4H-quinolizine-3-carboxylic acid]",IC50,0.01 to 0.1 µM
"CCNC(=O)NCc1cc(C(=O)O)c(=O)n2cc(Cc3cccc(Cl)c3F)ccc12 [Example 48, 7-(3-chloro-2-fluorobenzyl)-1-[(3-ethylureido)methyl]-4-oxo-4H-quinolizine-3-carboxylic acid]",IC50,0.01 to 0.1 µM
"O=C(Cc1ccccc1)NCc1cc(C(=O)O)c(=O)n2cc(Cc3cccc(Cl)c3F)ccc12 [Example 49, 7-(3-chloro-2-fluorobenzyl)-4-oxo-1-(phenylacetylaminomethyl)-4H-quinolizine-3-carboxylic acid]",IC50,0.01 to 0.1 µM
"O=C(O)C(=O)NCc1cc(C(=O)O)c(=O)n2cc(Cc3cccc(Cl)c3F)ccc12 [Example 50, 7-(3-chloro-2-fluorobenzyl)-1-[(oxalylamino)methyl]-4-oxo-4H-quinolizine-3-carboxylic acid]",IC50,0.01 to 0.1 µM
"O=C(COc1ccccc1)NCc1cc(C(=O)O)c(=O)n2cc(Cc3cccc(Cl)c3F)ccc12 [Example 51, 7-(3-chloro-2-fluorobenzyl)-4-oxo-1-[(2-phenoxyacetylamino)methyl]-4H-quinolizine-3-carboxylic acid]",IC50,0.01 to 0.1 µM
"CO[C@@H](C)C(=O)NCc1cc(C(=O)O)c(=O)n2cc(Cc3cccc(Cl)c3F)ccc12 [Example 52, 7-(3-chloro-2-fluorobenzyl)-1-[((S)-2-methoxypropionylamino)methyl]-4-oxo-4H-quinolizine-3-carboxylic acid]",IC50,0.01 to 0.1 µM
"CO[C@H](C)C(=O)NCc1cc(C(=O)O)c(=O)n2cc(Cc3cccc(Cl)c3F)ccc12 [Example 53, 7-(3-chloro-2-fluorobenzyl)-1-[((R)-2-methoxypropionylamino)methyl]-4-oxo-4H-quinolizine-3-carboxylic acid]",IC50,0.01 to 0.1 µM
"O=C(O)CCC(=O)NCc1cc(C(=O)O)c(=O)n2cc(Cc3cccc(Cl)c3F)ccc12 [Example 54, 1-[(3-carboxypropionylamino)methyl]-7-(3-chloro-2-fluorobenzyl)-4-oxo-4H-quinolizine-3-carboxylic acid]",IC50,0.01 to 0.1 µM
"CCOCC(=O)NCc1cc(C(=O)O)c(=O)n2cc(Cc3cccc(Cl)c3F)ccc12 [Example 55, 7-(3-chloro-2-fluorobenzyl)-1-[(2-ethoxyacetylamino)methyl]-4-oxo-4H-quinolizine-3-carboxylic acid]",IC50,0.01 to 0.1 µM
"COC(C)(C)C(=O)NCc1cc(C(=O)O)c(=O)n2cc(Cc3cccc(Cl)c3F)ccc12 [Example 56, 7-(3-chloro-2-fluorobenzyl)-1-[(2-methoxy-2-methylpropionylamino)methyl]-4-oxo-4H-quinolizine-3-carboxylic acid]",IC50,0.1 to 1 µM
"CC(=O)NCC(=O)NCc1cc(C(=O)O)c(=O)n2cc(Cc3cccc(Cl)c3F)ccc12 [Example 57, 1-[(2-acetylaminoacetylamino)methyl]-7-(3-chloro-2-fluorobenzyl)-4-oxo-4H-quinolizine-3-carboxylic acid]",IC50,0.1 to 1 µM
"COCOc1cc(C(=O)O)c(=O)n2cc(Cc3cccc(Cl)c3F)ccc12 [Example 58, 7-(3-chloro-2-fluorobenzyl)-1-methoxymethoxy-4-oxo-4H-quinolizine-3-carboxylic acid]",IC50,0.1 to 1 µM
"CCOC(=O)c1cc(NC(=O)OC(C)(C)C)c2ccc(Cc3cccc(Cl)c3F)cn2c1=O [Example 60, ethyl 1-(tert-butoxycarbonylamino)-7-(3-chloro-2-fluorobenzyl)-4-oxo-4H-quinolizine-3-carboxylate]",IC50,0.1 to 1 µM
"CC(=O)Nc1cc(C(=O)O)c(=O)n2cc(Cc3cccc(Cl)c3F)ccc12 [Example 61, 1-acetylamino-7-(3-chloro-2-fluorobenzyl)-4-oxo-4H-quinolizine-3-carboxylic acid]",IC50,0.1 to 1 µM
"CC(C)(C)OC(=O)c1cc(C(=O)O)c(=O)n2cc(Cc3cccc(Cl)c3F)ccc12 [Example 62, 7-(3-chloro-2-fluorobenzyl)-4-oxo-4H-quinolizine-1,3-dicarboxylic acid 1-tert-butyl ester]",IC50,0.1 to 1 µM
"CC(C)[C@@H](CO)c1cc(C(=O)O)c(=O)n2cc(Cc3cccc(Cl)c3Cl)ccc12 [Example 63, 7-(2,3-dichlorobenzyl)-1-((R)-1-hydroxymethyl-2-methylpropyl)-4-oxo-4H-quinolizine-3-carboxylic acid]",IC50,< 0.01 µM
"CC(C)(C)[C@@H](CO)c1cc(C(=O)O)c(=O)n2cc(Cc3cccc(Cl)c3Cl)ccc12 [Example 64, 7-(2,3-dichlorobenzyl)-1-((R)-1-hydroxymethyl-2,2-dimethylpropyl)-4-oxo-4H-quinolizine-3-carboxylic acid]",IC50,< 0.01 µM
